Converted amounts (≈) assume the structure as drawn. Like-named read-outs stand apart in the source and are kept apart here.
Assays:
AGE formation = assay: In vitro assay for inhibition of AGE formation (BSA-fructose/glucose fluorescence); format: biochemical; conditions: for IC50: read-out: AGEs IC50
Procedure: The inhibition of AGE formation was evaluated using a modification of a previously published method. To prepare the reaction solution, 10 mg/mL of bovine serum albumin was added to 0.2 M fructose, 0.2 M glucose, and […] sodium azide. The reaction solution was mixed with various concentrations of the samples dissolved in 10% DMSO until the total volume was 1 mL. After an 8-day incubation at 37 °C, the fluorescence intensity of the reaction products was measured using a VERSA MAX GEMINI XPS fluorescence microplate reader (Molecular Devices) with excitation and emission wavelengths of 350 nm and 450 nm, respectively. After obtaining the results, we determined the IC50 values as the result on day 4. Aminoguanidine hydrochloride was used as the positive control.

[1] = In vitro assay for peroxynitrite scavenging activity (DHR 123); conditions: mean ± SD of triplicate experiments; for IC50: read-out: ONOO− IC50
Procedure: The ONOO^− scavenging activity assay was conducted using a previously published method that involved measuring highly fluorescent rhodamine 123, which is rapidly converted from non-fluorescent DHR 123 in the presence of ONOO^−. Briefly, the rhodamine buffer (pH 7.4) was composed of 100 μM DTPA and 5 μM DHR 123. The assay buffer was prepared prior to use and placed on ice. The fluorescence intensity of the oxidized DHR 123 in the background and sample was measured 30 s after treatment with (and without) 200 μM authentic ONOO^−. The fluorescence intensity of the oxidized DHR 123 was measured using a VERSA MAX GEMINI XPS fluorescence microplate reader (Molecular Devices., CA, USA) at excitation and emission wavelengths of 485 and 530 nm, respectively. L-Penicillamine was used as the positive control.

α-glucosidase = target: T1, α-glucosidase (Saccharomyces cerevisiae, UniProt P53341); assay: Kinetic study for α-glucosidase inhibition (Lineweaver–Burk and Dixon plots); format: biochemical; conditions: for α-Glucosidase Inhibition Mode: determined using Lineweaver–Burk plots
T1 construct: purchased Sigma-Aldrich Chemical Company
T1 sequence (P53341 whole entry): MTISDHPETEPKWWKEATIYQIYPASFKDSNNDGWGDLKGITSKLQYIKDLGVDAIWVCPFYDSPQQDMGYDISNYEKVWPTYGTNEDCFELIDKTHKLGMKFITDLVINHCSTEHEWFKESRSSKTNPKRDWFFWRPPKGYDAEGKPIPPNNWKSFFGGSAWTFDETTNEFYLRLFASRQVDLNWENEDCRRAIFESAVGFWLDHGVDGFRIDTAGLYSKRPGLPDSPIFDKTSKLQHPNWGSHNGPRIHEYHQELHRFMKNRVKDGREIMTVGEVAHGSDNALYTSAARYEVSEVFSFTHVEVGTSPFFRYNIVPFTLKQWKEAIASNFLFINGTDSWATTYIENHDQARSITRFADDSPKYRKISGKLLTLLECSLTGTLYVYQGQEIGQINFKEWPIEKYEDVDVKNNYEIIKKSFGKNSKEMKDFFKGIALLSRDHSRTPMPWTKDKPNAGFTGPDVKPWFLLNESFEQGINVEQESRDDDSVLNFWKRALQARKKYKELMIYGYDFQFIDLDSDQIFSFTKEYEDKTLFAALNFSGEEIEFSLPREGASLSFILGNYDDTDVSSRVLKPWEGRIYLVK

PTP1B [2] = target: T2, PTP1B (Homo sapiens, UniProt P18031); assay: In vitro assay for PTP1B inhibitory activity (pNPP); format: biochemical
T2 construct: purchased Enzo Life Sciences
T2 sequence (P18031 1-435): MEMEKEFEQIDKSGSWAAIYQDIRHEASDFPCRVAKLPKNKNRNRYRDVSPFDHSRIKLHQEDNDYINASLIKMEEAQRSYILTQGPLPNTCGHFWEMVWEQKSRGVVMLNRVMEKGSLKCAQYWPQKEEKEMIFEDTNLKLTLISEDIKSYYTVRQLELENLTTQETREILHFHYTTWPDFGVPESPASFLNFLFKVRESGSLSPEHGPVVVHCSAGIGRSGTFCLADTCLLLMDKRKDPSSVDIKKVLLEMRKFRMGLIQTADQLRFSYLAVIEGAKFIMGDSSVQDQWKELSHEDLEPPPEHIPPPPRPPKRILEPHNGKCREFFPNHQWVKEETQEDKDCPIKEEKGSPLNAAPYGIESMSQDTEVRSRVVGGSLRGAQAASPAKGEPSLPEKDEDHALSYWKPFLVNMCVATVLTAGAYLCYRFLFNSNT

PTP1B [3] = target: T2, PTP1B; assay: Kinetic study for PTP1B inhibition (Lineweaver–Burk and Dixon plots); format: biochemical; conditions: for PTP1B Inhibition Mode: determined using Lineweaver–Burk plots
PTP1B [4] = target: T2, PTP1B; conditions: at 20 μg/mL; ref 43 (Zhao et al.); cited from earlier work
[5] = mean ± SD of triplicate experiments, result on day 4
[6] = determined using Dixon plots, read-out: α-Glucosidase Ki
[7] = mean ± SD of triplicate experiments, read-out: PTP1B IC50
[8] = determined using Dixon plots, read-out: PTP1B Ki

Compound | IC50 (AGE formation; [5]) [µM] | IC50 [1] [µM] | Ki (α-glucosidase; [6]) [µM] | α-Glucosidase Inhibition Mode (α-glucosidase) | IC50 (PTP1B [2]; [7]) [µM] | further results
Cl.N=C(N)NN [Aminoguanidine, Aminoguanidine hydrochloride, reference compound] | 890 ± 70.2 |  |  |  |  | IC50 Values AGEs (AGE formation; [5]): 52.62 ± 6.70 µg/mL
O=C1c2c(O)cc(O)cc2O[C@H](c2ccc(O)cc2O)[C@H]1O [Dihydromorin (3), Dihydromorin] | 118 ± 7.89 | 2.26 ± 0.12 | 10.2 | Mixed | 180 | 
CC(C)=CCc1c(-c2ccc(O)cc2O)oc2c(CC=C(C)C)c(O)cc(O)c2c1=O [Kuwanon C (1), Kuwanon C] | > 100 | 12.9 ± 0.68 | 6.85 | Mixed | 41.4 ± 1.64 | inhibitory activity on AGE formation (AGE formation; at 100 μg/mL): no inhibitory activity on AGE formation; Ki (PTP1B [3]; [8]): 39.4 µM; PTP1B Inhibition Mode (PTP1B [3]): Non-competitive; PTP1B inhibition (PTP1B [4]): 58%
CC(C)=CCc1c(-c2ccc(O)cc2O)oc2c(C3C=C(C)CC(c4ccc(O)cc4O)C3C(=O)c3ccc(O)cc3O)c(O)cc(O)c2c1=O (stereo not drawn) [Kuwanon G (7), Kuwanon G] | 69.1 ± 1.49 | 6.35 ± 0.36 |  | Mixed | 16.2 ± 0.29 | Ki (α-glucosidase): 2.03 µM; Ki (PTP1B [3]; [8]): 12.4 µM; PTP1B Inhibition Mode (PTP1B [3]): Mixed; PTP1B Inhibition Mode (PTP1B [3]; listed as kuwanon G (7)): mixed-type
CC(C)(S)[C@H](N)C(=O)O [L-Penicillamine, reference compound] |  | 6.69 ± 0.52 |  |  |  | IC50 Values ONOO− [1]: 1.37 ± 0.19 µg/mL (≈ 9.18 µM)
Oc1cc(O)cc(-c2cc3ccc(O)cc3o2)c1 [Moracin M (2), Moracin M] | 2.1 ± 0.22 | 1.08 ± 0.04 | 3.32 | Mixed | 333 ± 20.5 | 
O=c1cc(-c2ccc(O)cc2O)oc2cc(O)cc(O)c12 [Norartocarpetin (6), Norartocarpetin] | 77.3 ± 9.58 | 3.01 ± 0.15 | 19.9 | Mixed | > 100 | PTP1B-inhibitory activity (PTP1B [2]; at 100 μg/mL): no PTP1B-inhibitory activity; IC50 (PTP1B [2]; mean ± SD of triplicate experiments, read-out: IC50 Values PTP1B): > 349 µM; PTP1B inhibition (PTP1B [4]): 20%
Oc1cc(O)cc(/C=C/c2ccc(O)cc2O)c1 [Oxyresveratrol (5), Oxyresveratrol] | 7.56 ± 0.15 | 2.37 ± 0.21 |  | Mixed |  | Ki (α-glucosidase): 1.14 µM; IC50 (PTP1B [2]; PTP1B IC50, mean ± SD of triplicate experiments): 2.85 ± 0.3 µM; Ki (PTP1B [3]): 2.16 µM
